Laboratory results published in patent US10774051B2, “6-membered heterocyclic derivatives and pharmaceutical composition comprising the same” (Shionogi & Co., Ltd., priority 2015, dated 2020).
Like-named read-outs stand apart in the source and are kept apart here.

Target: human P2X7 receptor (Homo sapiens, UniProt Q99572, R270H/Y155H)
Experiment: Evaluation of human P2X7 receptor inhibitory activity (Yo-Pro uptake, BzATP stimulation, FLIPR TETRA)
Assay type: cell-based
In short: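 1321N1 cells stably expressing human P2X7 (T606C/G952A SNP variant), in HBSS buffer pH 7.4-7.5 with Yo-Pro, stimulated with BzATP; compound added 8 min after agonist. Fluorescence followed for 20 min on FLIPR; max-minus-min change gave % inhibition, IC50 by logistic fit.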

[1] = 1321N1 cells stably expressing human P2X7 receptor, BzATP stimulation, Yo-Pro uptake, read-out: IC50 (antagonistic activity for the human P2X7 receptor), class symbol
[2] = antagonistic activity for the human P2X7 receptor, read-out: IC50

| Structure (SMILES) | IC50 [1] [nM] | other results |
| --- | --- | --- |
| COc1cn(Cc2ccc(F)c(F)c2)c(Nc2cc(OC(C)C)ccc2C)nc1=O [Compound I-0555] | 10 to 100 | – |
| COc1cn(Cc2cc(F)cc(F)c2)c(Nc2cc(OC(C)C)ccc2C)nc1=O [Compound I-0556] | 10 to 100 | – |
| COc1cn(Cc2cc(F)cc(Cl)c2)c(Nc2cc(OC(C)C)ccc2C)nc1=O [Compound I-0557] | 10 to 100 | – |
| COc1cn(Cc2ccccc2)c(Nc2cc(-c3ncco3)ccc2C)nc1=O [Compound I-0558] | 10 to 100 | – |
| COc1cn(Cc2cccc(F)c2)c(Nc2cc3sc(C)nc3cc2C)nc1=O [Compound I-0559] | 10 to 100 | – |
| COc1cc(C)cc(Nc2nc(=O)c(OC)cn2Cc2ccc(F)cc2)c1C [Compound I-0560] | < 10 | – |
| COc1cn(Cc2ccc(F)cc2)c(Nc2cc3sc(C)nc3cc2C)nc1=O [Compound I-0561] | – | IC50 (1321N1 cells stably expressing human P2X7 receptor, BzATP stimulation, Yo-Pro uptake, read-out: IC50 (antagonistic activity for the human P2X7 receptor)): 19 nM |
| COc1cn(Cc2cccc(Cl)c2)c(Nc2cc3sc(C)nc3cc2C)nc1=O [Compound I-0562] | 10 to 100 | – |
| COc1cn(Cc2cc(F)cc(F)c2)c(Nc2ccc(Cl)cc2C)nc1=O [Compound I-0563] | 10 to 100 | – |
| COc1cn(Cc2ccc(F)c(Cl)c2)c(Nc2ccc(Cl)cc2C)nc1=O [Compound I-0564] | 10 to 100 | – |
| CCc1ccc(F)cc1Nc1nc(=O)c(OC)cn1Cc1ccc(F)cc1 [Compound I-0565] | 100 to 500 | – |
| CCc1ccc(F)cc1Nc1nc(=O)c(OC)cn1Cc1cccc(Cl)c1 [Compound I-0566] | 10 to 100 | – |
| CCc1ccc(F)cc1Nc1nc(=O)c(OC)cn1Cc1ccc(F)c(Cl)c1 [Compound I-0567] | 10 to 100 | – |
| CCc1ccccc1Nc1nc(=O)c(OC)cn1Cc1cc(F)c(F)c(F)c1 [Compound I-0568] | 10 to 100 | – |
| COc1cn(Cc2cc(F)c(F)c(F)c2)c(Nc2cccc(C)c2C)nc1=O [Compound I-0569] | < 10 | – |
| COc1cn(Cc2cc(F)c(F)c(F)c2)c(Nc2ccc(C)cc2C)nc1=O [Compound I-0570] | < 10 | – |
| COc1cn(Cc2cc(F)c(F)c(F)c2)c(Nc2cc(C)ccc2C)nc1=O [Compound I-0571] | < 10 | – |
| COc1cccc(Nc2nc(=O)c(OC)cn2Cc2cc(F)c(F)c(F)c2)c1C [Compound I-0572] | < 10 | – |
| CCc1cc(OC)ccc1Nc1nc(=O)c(OC)cn1Cc1cc(F)c(F)c(F)c1 [Compound I-0573] | < 10 | – |
| COc1cn(Cc2cc(F)c(F)c(F)c2)c(Nc2cc(C)c(C)cc2C)nc1=O [Compound I-0574] | < 10 | – |

| Structure (SMILES) | IC50 [1] [nM] | other results |
| --- | --- | --- |
| COc1cn(Cc2cc(F)c(F)c(F)c2)c(Nc2cc(C)c(Cl)cc2C)nc1=O [Compound I-0575] | < 10 | – |
| COc1cn(Cc2cc(F)cc(Cl)c2)c(Nc2cccc(OC(F)F)c2C)nc1=O [Compound I-0576] | 10 to 100 | – |
| COc1cn(Cc2cc(F)cc(Cl)c2)c(Nc2cccc(C)c2Cl)nc1=O [Compound I-0577] | 10 to 100 | – |
| COc1cn(Cc2cc(F)cc(Cl)c2)c(Nc2cc(CO)c(C)cc2C)nc1=O [Compound I-0578] | < 10 | – |
| COc1cn(Cc2cc(F)cc(Cl)c2)c(Nc2cccc3[nH]c(C)cc23)nc1=O [Compound I-0579] | 10 to 100 | – |
| COc1cn(Cc2cc(F)cc(Cl)c2)c(Nc2cc3[nH]ncc3cc2C)nc1=O [Compound I-0580] | 10 to 100 | – |
| COc1ccc(Nc2nc(=O)c(OC)cn2Cc2cc(F)c(F)c(F)c2)c(C)c1 [Compound I-0581] | < 10 | – |
| COc1cn(Cc2cc(F)cc(C(F)(F)F)c2)c(Nc2cccc(Cl)c2C)nc1=O [Compound I-0582] | 100 to 500 | – |
| COc1cn(Cc2ccccc2)c(Nc2ccc3[nH]ccc3c2C)nc1=O [Compound I-0583] | < 10 | – |
| COc1cn(Cc2ccc(F)c(Cl)c2)c(Nc2ccc3[nH]ccc3c2C)nc1=O [Compound I-0584] | – | IC50 [2]: < 10 nM |
| COc1cc(Nc2nc(=O)c(OC)cn2Cc2ccccc2)c(C)cc1C [Compound I-0585] | – | IC50 [2]: < 10 nM |
| COc1cc(Nc2nc(=O)c(OC)cn2Cc2ccc(F)c(Cl)c2)c(C)cc1C [Compound I-0586] | – | IC50 [2]: < 10 nM |
| COc1cn(Cc2ccccc2)c(Nc2cc(-c3cccn(C)c3=O)ccc2C)nc1=O [Compound I-0587] | – | IC50 [2]: 10 to 100 nM |
| COc1cn(Cc2ccc(F)c(Cl)c2)c(Nc2cc(-c3cccn(C)c3=O)ccc2C)nc1=O [Compound I-0588] | – | IC50 [2]: < 10 nM |
| COc1cn(Cc2cc(F)cc(F)c2)c(Nc2cc(-c3cccn(C)c3=O)ccc2C)nc1=O [Compound I-0589] | – | IC50 [2]: < 10 nM |
| COc1cn(Cc2ccccc2)c(Nc2cc(-c3cccn(C)c3=O)c(F)cc2C)nc1=O [Compound I-0590] | – | IC50 [2]: 10 to 100 nM |
| COc1cn(Cc2ccc(F)c(Cl)c2)c(Nc2cc(-c3cccn(C)c3=O)c(F)cc2C)nc1=O [Compound I-0591] | – | IC50 [2]: 10 to 100 nM |
| COc1cn(Cc2cc(F)cc(F)c2)c(Nc2cc(-c3cccn(C)c3=O)c(F)cc2C)nc1=O [Compound I-0592] | – | IC50 [2]: 10 to 100 nM |
| COc1cn(Cc2cc(F)cc(F)c2)c(Nc2cc(Cl)ccc2C)nc1=O [Compound I-0593] | – | IC50 [2]: 10 to 100 nM |
